The record followed here is ChEMBL document CHEMBL2401734, “Structures and biosynthesis of 12-membered macrocyclic depsipeptides from Streptomyces sp. ML55” (Bioorg Med Chem Lett, 2013).

For the experiment, the system named is HT-29. The experiment in a line: Antiproliferative activity against human HT-29 cells after 1 to 15 hrs. It counts as functional, cell-based.

SMILES strings stand for the structures. Active and inactive are the calls of the source. No cut-off for these calls is given here.

Consider `CCC(C)C1OC(=O)[C@@H](NC(=O)c2cccc(N)c2O)[C@H](C)OC(=O)C(C)(C)C(=O)C(CC(C)C)OC1=O` (some centres not stated), for which the result was Active. Consider `CCC(C)C1OC(=O)[C@@H](NC(=O)c2cccc(O)c2O)[C@H](C)OC(=O)C(C)(C)C(=O)C(CC(C)C)OC1=O` (some centres not stated), for which the result was Active.
